Measured values published in patent US4001218A, “Penicillins” (Bayer Aktiengesellschaft, priority 1972, dated 1977).

Key:
Enterococcus 9790 = experiment: MIC, test tube series dilution test, Enterococcus 9790; format: cell-based; details: 24 hours, 37°C
Klebsiella 63 = experiment: MIC, test tube series dilution test, Klebsiella 63; format: cell-based; details: Klebsiella 63; 24 hours, 37°C
Psdm. aerug. Walter = experiment: MIC, test tube series dilution test, Psdm. aerug. Walter; format: cell-based, Pseudomonas aeruginosa; details: Psdm. aerug. Walter; 24 hours, 37°C
E. coli 14 = format: cell-based; details: E. coli 14; 24 hours, 37°C
E. coli A 261 = experiment: MIC, test tube series dilution test, E. coli A 261; format: cell-based; details: 24 hours, 37°C
Proteus vulg. 1017 = format: cell-based, Proteus vulgaris; details: Proteus 1017; 24 hours, 37°C
Proteus morg. 932 = experiment: MIC, test tube series dilution test, Proteus morg. 932; format: cell-based; details: 24 hours, 37°C
Staph. aureus 1756 = experiment: MIC, test tube series dilution test, Staph. aureus 1756; format: cell-based, Staphylococcus aureus; details: Staph. aureus 1756; 24 hours, 37°C
Psdm. aerug. F 41 = experiment: MIC, test tube series dilution test, Psdm. aerug. F 41; format: cell-based, Pseudomonas aeruginosa; details: Psdm. aerug. F 41; 24 hours, 37°C
E. coli C 165 = experiment: MIC, test tube series dilution test, E. coli C 165; format: cell-based; details: 24 hours, 37°C
Staph. aureus 133 = format: cell-based, Staphylococcus aureus; details: Staph. aureus 133; 24 hours, 37°C
E. coli 183/58 = experiment: MIC, test tube series dilution test, E. coli 183/58; format: cell-based; details: 24 hours, 37°C
Klebsiella K 10 = experiment: MIC, test tube series dilution test, Klebsiella K 10; format: cell-based; details: 24 hours, 37°C

Row | SMILES | MIC (Enterococcus 9790) | MIC (Klebsiella 63) | MIC (Psdm. aerug. Walter) | MIC (E. coli 14) | MIC (E. coli A 261) | MIC (Proteus vulg. 1017) | MIC (Proteus morg. 932) | MIC (Staph. aureus 1756) | MIC (Psdm. aerug. F 41) | MIC (E. coli C 165) | MIC (Staph. aureus 133) | MIC (E. coli 183/58) | MIC (Klebsiella K 10)
1 | CC1(C)S[C@@H]2[C@H](NC(=O)[C@H](NC(=O)c3ccc(NC(=O)C4CC=CCC4)cc3)c3ccccc3)C(=O)N2[C@H]1C(=O)O (single isomer, unassigned) [Example 12, sodium D(-)-α-[4-(3-cyclohexene-1-carbonylamino-benzoylamino)]-benzylpenicillin] | ~ 8 U/ml | 32 U/ml | 32 U/ml | ~ 4 U/ml | > 256 U/ml | 16 U/ml | > 256 U/ml | 16 U/ml | 32 U/ml | 8 U/ml | < 1 U/ml | 16 U/ml | 32 U/ml
2 | CC1(C)S[C@@H]2[C@H](NC(=O)[C@H](N)c3ccccc3)C(=O)N2[C@H]1C(=O)O [Ampicillin, D(-)-α-aminobenzylpenicillin, reference compound] | 4 U/ml | 128 U/ml | > 256 U/ml | > 1 U/ml | 8 U/ml | 256 U/ml | 256 U/ml | 256 U/ml | > 256 U/ml | 8 U/ml | < 1 U/ml | 200 U/ml | 128 U/ml
3 | CC1(C)S[C@@H]2[C@H](NC(=O)[C@H](NC(=O)c3ccc(NC(=O)C4CCC4)cc3)c3ccccc3)C(=O)N2[C@H]1C(=O)O [Example 5, sodium D(-)-α-(4-cyclobutanecarbonylaminobenzoylamino)-benzylpenicillin] | 16 U/ml | 64 U/ml | 64 U/ml | 8 U/ml | > 256 U/ml | 32 U/ml | 256 U/ml | 32 U/ml | 64 U/ml | 16 U/ml | < 1 U/ml | 32 U/ml | 128 U/ml
4 | CC1(C)S[C@@H]2[C@H](NC(=O)[C@H](NC(=O)c3ccc(NC(=O)CC4C=CCC4)cc3)c3ccccc3)C(=O)N2[C@H]1C(=O)[O-].[Na+] (stereo partly drawn) [Example 8, sodium D(-)-α-(4-[2-cyclopentene-1-acetamido-benzoylamino])-benzylpenicillin] | 8 U/ml | 32 U/ml | 64 U/ml |  | > 256 U/ml | 64 U/ml | 128 U/ml | 8 U/ml | 64 U/ml | 8 U/ml | < 1 U/ml | 16 U/ml | 64 U/ml
5 | CC1(C)S[C@@H]2[C@H](NC(=O)[C@H](NC(=O)c3ccc(NC(=O)C4=CCCCC4)cc3)c3ccccc3)C(=O)N2[C@H]1C(=O)O [Example 11, sodium D(-)-α-[4-(1-cyclohexene-1-carbonylamino-benzoylamino)]-benzylpenicillin] | 16 U/ml | 32 U/ml | 32 U/ml | 4 U/ml | > 256 U/ml | 64 U/ml | 128 U/ml | 128 U/ml | 32 U/ml | 8 U/ml | < 1 U/ml | 8 U/ml | 64 U/ml
6 | CC1(C)S[C@@H]2[C@H](NC(=O)[C@H](NC(=O)c3ccc(NC(=O)C4CCC=CCC4)cc3)c3ccccc3)C(=O)N2[C@H]1C(=O)O [Example 14, sodium D(-)-α-[4-(4-cycloheptene-1-carbonylamino-benzoylamino)]-benzylpenicillin] | 8 U/ml | 32 U/ml | 32 U/ml | < 1 U/ml | > 256 U/ml | 16 U/ml | 256 U/ml | 32 U/ml | 32 U/ml | ~ 8 U/ml | < 1 U/ml | 16 U/ml | 32 U/ml
7 | COc1ccc(C(=O)Nc2ccc(C(=O)N[C@@H](C(=O)N[C@@H]3C(=O)N4[C@@H]3SC(C)(C)[C@@H]4C(=O)O)c3ccccc3)cc2)cc1 [Example 16] | 8 U/ml | 16 U/ml | 16 U/ml | ~ 1 U/ml | > 256 U/ml | 64 U/ml | 256 U/ml | 64 U/ml | 16 U/ml | 8 U/ml | < 1 U/ml | 8 U/ml | 32 U/ml
